Columns and labels:
[1] = molecular target: Tyrosine-protein kinase Fyn (Homo sapiens, UniProt P06241); experiment: biochemical; type: cell-based, Insect cells;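 note: enzymatic inhibition of Fyn kinase activity measured with Poly(Glu:Tyr) as the phosphorylation substrate; in other assays of this panel Not Active means under 50% inhibition at 10 µM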
Glycine receptor = Glycine receptor (Rattus norvegicus, UniProt P22771+P24524+P07727+P20781); type: cell membranes, Wistar, Spinal cord, Membrane; note: in other assays of this panel Not Active means under 50% inhibition at 10 µM
[2] = DRUGMATRIX: Purinergic P2X radioligand binding (ligand: [3H] alpha, beta-Methylene-ATP); type: cell membranes, Oryctolagus cuniculus, New Zealand albino, Urinary bladder, Membrane; conditions: Not Active = under 50% inhibition at 10 µM
Androgen receptor = molecular target: T1, Androgen receptor (Rattus norvegicus, UniProt P15207); note: in other assays of this panel Not Active means under 50% inhibition at 10 µM
T1 sequence (P15207 whole entry): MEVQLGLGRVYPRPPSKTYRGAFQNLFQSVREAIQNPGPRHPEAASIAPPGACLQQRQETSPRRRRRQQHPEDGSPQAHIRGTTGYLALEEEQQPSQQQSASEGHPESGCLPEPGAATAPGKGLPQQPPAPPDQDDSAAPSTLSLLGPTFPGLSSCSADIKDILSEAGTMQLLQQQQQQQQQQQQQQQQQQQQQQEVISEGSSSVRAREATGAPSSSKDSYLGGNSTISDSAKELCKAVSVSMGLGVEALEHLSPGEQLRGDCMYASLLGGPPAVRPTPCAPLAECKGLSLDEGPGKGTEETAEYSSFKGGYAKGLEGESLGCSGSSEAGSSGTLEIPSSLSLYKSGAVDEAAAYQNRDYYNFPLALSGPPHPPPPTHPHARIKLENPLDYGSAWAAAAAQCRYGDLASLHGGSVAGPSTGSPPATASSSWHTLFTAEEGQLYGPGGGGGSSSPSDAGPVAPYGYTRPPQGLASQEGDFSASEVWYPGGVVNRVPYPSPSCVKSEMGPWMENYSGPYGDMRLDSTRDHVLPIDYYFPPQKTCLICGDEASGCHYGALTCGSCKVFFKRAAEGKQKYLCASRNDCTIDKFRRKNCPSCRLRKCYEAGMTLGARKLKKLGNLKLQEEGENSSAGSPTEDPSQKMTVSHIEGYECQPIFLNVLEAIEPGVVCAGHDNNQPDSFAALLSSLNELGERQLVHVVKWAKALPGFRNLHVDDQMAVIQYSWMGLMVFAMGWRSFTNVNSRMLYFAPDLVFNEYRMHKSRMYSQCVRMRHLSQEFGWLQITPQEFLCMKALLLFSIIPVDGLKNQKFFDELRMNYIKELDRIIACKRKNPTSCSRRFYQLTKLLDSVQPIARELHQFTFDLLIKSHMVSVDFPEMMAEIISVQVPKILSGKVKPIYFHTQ

Cytochrome P450 1A2 = molecular target: T2, Cytochrome P450 1A2 (Homo sapiens, UniProt P05177); note: in other assays of this panel Not Active means under 50% inhibition at 10 µM
T2 sequence (P05177 whole entry): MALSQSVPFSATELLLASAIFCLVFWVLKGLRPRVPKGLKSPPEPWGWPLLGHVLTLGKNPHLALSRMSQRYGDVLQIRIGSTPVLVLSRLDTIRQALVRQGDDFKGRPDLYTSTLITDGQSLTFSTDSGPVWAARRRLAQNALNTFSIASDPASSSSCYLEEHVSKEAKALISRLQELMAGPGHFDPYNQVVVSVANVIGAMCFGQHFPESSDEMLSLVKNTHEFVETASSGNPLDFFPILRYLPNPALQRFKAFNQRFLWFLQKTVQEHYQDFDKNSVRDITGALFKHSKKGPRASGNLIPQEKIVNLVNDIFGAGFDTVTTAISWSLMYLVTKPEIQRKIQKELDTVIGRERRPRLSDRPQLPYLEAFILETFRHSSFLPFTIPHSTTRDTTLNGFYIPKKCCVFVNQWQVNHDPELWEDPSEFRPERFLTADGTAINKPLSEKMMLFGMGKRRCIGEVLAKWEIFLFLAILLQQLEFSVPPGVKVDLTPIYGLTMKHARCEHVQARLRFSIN

Cytochrome P450 2D6 = Cytochrome P450 2D6 (Homo sapiens, UniProt P10635); note: in other assays of this panel Not Active means under 50% inhibition at 10 µM
Glucocorticoid receptor = molecular target: T3, Glucocorticoid receptor (Homo sapiens, UniProt P04150); experiment: biochemical; note: in other assays of this panel Not Active means under 50% inhibition at 10 µM
T3 sequence (P04150 whole entry): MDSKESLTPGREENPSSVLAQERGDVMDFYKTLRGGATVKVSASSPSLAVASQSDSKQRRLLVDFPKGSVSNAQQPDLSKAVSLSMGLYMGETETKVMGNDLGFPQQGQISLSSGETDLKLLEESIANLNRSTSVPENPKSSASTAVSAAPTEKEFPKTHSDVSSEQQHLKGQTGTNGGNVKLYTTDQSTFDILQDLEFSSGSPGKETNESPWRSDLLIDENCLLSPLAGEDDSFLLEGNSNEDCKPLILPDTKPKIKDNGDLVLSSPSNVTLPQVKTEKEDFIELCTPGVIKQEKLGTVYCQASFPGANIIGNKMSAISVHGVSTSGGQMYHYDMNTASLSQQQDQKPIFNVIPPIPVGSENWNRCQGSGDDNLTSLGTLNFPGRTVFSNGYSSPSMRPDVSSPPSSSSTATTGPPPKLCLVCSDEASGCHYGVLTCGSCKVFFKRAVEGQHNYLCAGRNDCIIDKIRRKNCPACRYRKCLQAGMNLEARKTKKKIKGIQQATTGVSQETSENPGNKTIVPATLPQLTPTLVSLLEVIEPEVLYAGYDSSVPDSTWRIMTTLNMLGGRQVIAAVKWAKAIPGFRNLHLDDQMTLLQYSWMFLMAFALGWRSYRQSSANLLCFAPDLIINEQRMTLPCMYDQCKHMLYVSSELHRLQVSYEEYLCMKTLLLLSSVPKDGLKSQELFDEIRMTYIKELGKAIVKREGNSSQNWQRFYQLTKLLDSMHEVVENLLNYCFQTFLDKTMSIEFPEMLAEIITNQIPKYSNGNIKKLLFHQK

Sequence of Tyrosine-protein kinase Fyn (P06241 whole entry): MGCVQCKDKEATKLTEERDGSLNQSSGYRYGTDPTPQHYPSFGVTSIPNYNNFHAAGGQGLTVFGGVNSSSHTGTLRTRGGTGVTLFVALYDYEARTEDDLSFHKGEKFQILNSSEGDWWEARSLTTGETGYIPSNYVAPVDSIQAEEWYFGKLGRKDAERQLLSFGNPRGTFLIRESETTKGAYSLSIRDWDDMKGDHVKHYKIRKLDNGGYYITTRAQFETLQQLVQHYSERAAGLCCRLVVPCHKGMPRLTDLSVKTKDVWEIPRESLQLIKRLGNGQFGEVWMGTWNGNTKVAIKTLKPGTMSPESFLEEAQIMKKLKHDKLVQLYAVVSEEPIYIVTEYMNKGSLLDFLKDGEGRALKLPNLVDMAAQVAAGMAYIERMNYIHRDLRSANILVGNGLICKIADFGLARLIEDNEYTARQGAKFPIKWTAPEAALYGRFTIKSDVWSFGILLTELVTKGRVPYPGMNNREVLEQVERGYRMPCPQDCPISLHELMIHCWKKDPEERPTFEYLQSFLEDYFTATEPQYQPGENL
Sequence of Cytochrome P450 2D6 (P10635 whole entry): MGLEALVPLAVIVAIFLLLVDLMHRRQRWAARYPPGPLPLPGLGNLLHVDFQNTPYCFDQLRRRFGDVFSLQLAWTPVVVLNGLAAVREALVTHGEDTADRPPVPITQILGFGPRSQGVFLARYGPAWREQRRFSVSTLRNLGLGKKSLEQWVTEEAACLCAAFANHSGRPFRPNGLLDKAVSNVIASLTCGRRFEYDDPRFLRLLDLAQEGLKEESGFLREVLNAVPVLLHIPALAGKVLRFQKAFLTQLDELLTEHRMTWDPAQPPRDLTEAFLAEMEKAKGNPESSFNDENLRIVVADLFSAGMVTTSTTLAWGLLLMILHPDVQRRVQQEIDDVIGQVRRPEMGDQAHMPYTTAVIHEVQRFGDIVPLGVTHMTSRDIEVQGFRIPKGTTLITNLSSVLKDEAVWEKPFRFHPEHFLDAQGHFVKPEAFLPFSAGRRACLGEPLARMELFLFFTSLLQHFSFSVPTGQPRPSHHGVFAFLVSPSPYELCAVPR

| Molecule | IC50 ([1]; insect cells) | IC50 (Glycine receptor) | IC50 [2] | Ki [2] | also measured |
| --- | --- | --- | --- | --- | --- |
| CC(C)(C)NC(=O)[C@@H]1C[C@@H]2CCCC[C@@H]2CN1C[C@@H](O)[C@H](Cc1ccccc1)NC(=O)[C@H](CC(N)=O)NC(=O)c1ccc2ccccc2n1 | Not Active | Not Active | Not Active | Not Active |  |
| N[C@@H](Cc1ccc(N(CCCl)CCCl)cc1)C(=O)O | Not Active | Not Active | Not Active | Not Active |  |
| CCCCc1oc2ccccc2c1C(=O)c1cc(I)c(OCCN(CC)CC)c(I)c1 [AMIODARONE] |  | Not Active |  |  | IC50 ([1]; read-out: IC50): 817 nM |
| OCCN(CCO)c1nc(N2CCCCC2)c2nc(N(CCO)CCO)nc(N3CCCCC3)c2n1 [DIPYRIDAMOLE] | Not Active | Not Active | Not Active | Not Active | IC50 (Androgen receptor): Not Active |
| Cc1oncc1C(=O)Nc1ccc(C(F)(F)F)cc1 [LEFLUNOMIDE] | Not Active | Not Active | Not Active | Not Active | IC50 (Cytochrome P450 1A2): 500 nM |
| c1ccc([C@H]2CN3CCSC3=N2)cc1 [LEVAMISOLE] | Not Active | Not Active | Not Active | Not Active |  |
| N[C@@H](Cc1ccc(O)c(O)c1)C(=O)O [LEVODOPA] |  | Not Active | Not Active | Not Active | IC50 ([1]; read-out: IC50): 2150 nM |
| N[C@@H](Cc1cc(I)c(Oc2ccc(O)c(I)c2)c(I)c1)C(=O)O [LIOTHYRONINE] | Not Active | Not Active |  |  |  |
| O=NN(CCCl)C(=O)NC1CCCCC1 [LOMUSTINE] | Not Active | Not Active | Not Active | Not Active |  |
| CCOC(=O)N1CCC(=C2c3ccc(Cl)cc3CCc3cccnc32)CC1 [LORATADINE] | Not Active | Not Active | Not Active | Not Active |  |
| Cn1ccnc1S [METHIMAZOLE] | Not Active | Not Active | Not Active | Not Active |  |
| CC[C@@H](CO)NC(=O)[C@@H]1C=C2c3cccc4[nH]cc(c34)C[C@H]2N(C)C1 [METHYLERGONOVINE] | Not Active | Not Active | Not Active | Not Active | IC50 (Androgen receptor): Not Active |
| COc1nc(C)nc(Cl)c1NC1=NCCN1 [MOXONIDINE] | Not Active | Not Active | Not Active | Not Active |  |
| COc1c(C)c2c(c(O)c1C/C=C(\C)CCC(=O)O)C(=O)OC2 [MYCOPHENOLIC ACID] | Not Active | Not Active | Not Active | Not Active |  |
| O=c1ncn2nc(Sc3ccc(F)cc3F)ccc2c1-c1c(Cl)cccc1Cl [NEFLAMAPIMOD] | Not Active | Not Active | Not Active | Not Active | IC50 (Androgen receptor): Not Active |
| CN1CCN(CCCN2c3ccccc3Sc3ccc(Cl)cc32)CC1 [PROCHLORPERAZINE] |  | Not Active |  |  | IC50 ([1]; read-out: IC50): 5680 nM; IC50 (Cytochrome P450 1A2): 2000 nM |
| CO[C@H]1/C=C/O[C@@]2(C)Oc3c(C)c(O)c4c(O)c(c(/C=N/N5CCN(C)CC5)c(O)c4c3C2=O)NC(=O)/C(C)=C\C=C\[C@H](C)[C@H](O)[C@@H](C)[C@@H](O)[C@@H](C)[C@H](OC(C)=O)[C@@H]1C [RIFAMPIN] | Not Active | Not Active | Not Active | Not Active |  |

| Molecule | IC50 ([1]; insect cells) | IC50 (Glycine receptor) | IC50 [2] | Ki [2] | also measured |
| --- | --- | --- | --- | --- | --- |
| Nc1nc2ccc(OC(F)(F)F)cc2s1 [RILUZOLE] | Not Active | Not Active | Not Active | Not Active |  |
| Cc1nc2n(c(=O)c1CCN1CCC(c3noc4cc(F)ccc34)CC1)CCCC2 [RISPERIDONE] | Not Active | Not Active |  |  | IC50 (Cytochrome P450 2D6): 5270 nM |
| C=CCC1(C(C)CCC)C(=O)NC(=O)NC1=O (centres undefined) [SECOBARBITAL] | Not Active | Not Active | Not Active | Not Active |  |
| Cc1noc(NS(=O)(=O)c2ccc(N)cc2)c1C [SULFISOXAZOLE] | Not Active | Not Active | Not Active | Not Active |  |
| Nc1c2c(nc3ccccc13)CCCC2 [TACRINE] | Not Active | Not Active | Not Active | Not Active | IC50 (Cytochrome P450 2D6): 300 nM |
| CC/C(=C(\c1ccccc1)c1ccc(OCCN(C)C)cc1)c1ccccc1 [TAMOXIFEN] |  | Not Active |  |  | IC50 ([1]; read-out: IC50): 1200 nM |
| CC(C)N1CCN(c2ccc(OCC3COC(Cn4cncn4)(c4ccc(Cl)cc4Cl)O3)cc2)CC1 (centres undefined) [TERCONAZOLE] |  | Not Active | Not Active | Not Active | IC50 ([1]; read-out: IC50): 10900 nM |
| Nc1nc2nc[nH]c2c(=S)[nH]1 [THIOGUANINE] | Not Active | Not Active | Not Active | Not Active | IC50 (Androgen receptor): Not Active |
| NC[C@H]1CC[C@H](C(=O)O)CC1 [TRANEXAMIC ACID] | Not Active | Not Active | Not Active | Not Active |  |
| CC1(C)O[C@@H]2C[C@H]3[C@@H]4CCC5=CC(=O)C=C[C@]5(C)[C@@]4(F)[C@@H](O)C[C@]3(C)[C@]2(C(=O)CO)O1 [TRIAMCINOLONE ACETONIDE] | Not Active | Not Active | Not Active | Not Active | IC50 (Glucocorticoid receptor): 4.41 nM; Ki (Glucocorticoid receptor): 2.01 nM |
| NS(=O)(=O)c1cc2c(cc1Cl)NC(C(Cl)Cl)NS2(=O)=O (centres undefined) [TRICHLORMETHIAZIDE] | Not Active | Not Active | Not Active | Not Active |  |
| N[C@@H]1[C@H]2CN(c3nc4c(cc3F)c(=O)c(C(=O)O)cn4-c3ccc(F)cc3F)C[C@@H]12 [TROVAFLOXACIN] | Not Active | Not Active | Not Active | Not Active | IC50 (Androgen receptor): Not Active |
| N#CC(C#N)=Cc1ccc(O)c(O)c1 [TYRPHOSTIN 23] | Not Active | Not Active | Not Active | Not Active | IC50 (Androgen receptor): Not Active |
| CC[C@]1(O)C[C@H]2CN(CCc3c([nH]c4ccccc34)[C@@](C(=O)OC)(c3cc4c(cc3OC)N(C=O)[C@H]3[C@@](O)(C(=O)OC)[C@H](OC(C)=O)[C@]5(CC)C=CCN6CC[C@]43[C@@H]65)C2)C1 [VINCRISTINE] | Not Active | Not Active | Not Active | Not Active | IC50 (Androgen receptor): Not Active |
| CCCOc1ccccc1-c1nc2nn[nH]c2c(=O)[nH]1 [ZAPRINAST] | Not Active | Not Active | Not Active | Not Active |  |
| SODIUM NITROPRUSSIDE | Not Active | Not Active | Not Active | Not Active | Ki ([1]; insect cells): Not Active; Ki (Glycine receptor): Not Active; IC50 (Androgen receptor): Not Active; Ki (Androgen receptor): Not Active |

Source: ChEMBL document CHEMBL1909046, “DrugMatrix in vitro pharmacology data”
